# Results: paper PMC12526218, “Design, Synthesis and Herbicidal Activity of 1,2,4-Oxadiazole Compounds as Novel Light-Dependent Protochlorophyllide Oxidoreductase Inhibitors” (Molecules, 2025)
# Molecular target: Light-dependent protochlorophyllide oxidoreductase (AtLPOR)
# Test: Plant LPOR ELISA kit on Arabidopsis leaf extract, IC50
# Format: biochemical, Arabidopsis thaliana
row,IC50 [µM],SMILES
1,111,"O=[N+]([O-])c1ccc(-c2noc(COCc3ccccc3)n2)cc1 [5j, 5-((benzyloxy)methyl)-3-(4-nitrophenyl)-1,2,4-oxadiazole]"
2,83.6,"O=[N+]([O-])c1cccc(-c2noc(COCc3ccccc3)n2)c1 [5k, 5-((benzyloxy)methyl)-3-(3-nitrophenyl)-1,2,4-oxadiazole]"
3,17.6,"c1ccc(COCc2nc(-c3ccc(OCc4ccccc4)cc3)no2)cc1 [5q, 5-((benzyloxy)methyl)-3-(4-(benzyloxy)phenyl)-1,2,4-oxadiazole]"
